Measurements taken from PMC4988499, “Pinpointing a Mechanistic Switch Between Ketoreduction and “Ene” Reduction in Short‐Chain Dehydrogenases/Reductases” (Angewandte Chemie (Weinheim an Der Bergstrasse, Germany), 2016).

Assays:
[1] = target: T1, MNMR ((−)‐menthone:(+)‐neomenthol reductase) (Mentha x piperita, UniProt Q06ZW2); experiment: X-ray crystal structure (soaking); type: binding; conditions: coenzyme site
T1 construct: recombinant; catalytic Tyr244

[2] = target: T2, IPR (isopiperitenone reductase) (Mentha x piperita, UniProt Q6WAU1); experiment: X-ray crystal structure; type: binding
T2 construct: recombinant; NADP+ scavenged from host cells; catalytic Glu238
T2 sequence (Q6WAU1 whole entry): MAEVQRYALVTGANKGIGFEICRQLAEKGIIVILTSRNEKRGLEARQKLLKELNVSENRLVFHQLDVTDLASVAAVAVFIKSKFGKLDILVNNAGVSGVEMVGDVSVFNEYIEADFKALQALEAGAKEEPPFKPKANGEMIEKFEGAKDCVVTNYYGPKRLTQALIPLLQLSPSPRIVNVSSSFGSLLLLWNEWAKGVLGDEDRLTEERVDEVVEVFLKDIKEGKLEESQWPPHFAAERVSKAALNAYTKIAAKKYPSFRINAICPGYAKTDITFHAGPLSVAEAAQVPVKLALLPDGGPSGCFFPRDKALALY

T1 sequence (Q06ZW2 entry or part of it): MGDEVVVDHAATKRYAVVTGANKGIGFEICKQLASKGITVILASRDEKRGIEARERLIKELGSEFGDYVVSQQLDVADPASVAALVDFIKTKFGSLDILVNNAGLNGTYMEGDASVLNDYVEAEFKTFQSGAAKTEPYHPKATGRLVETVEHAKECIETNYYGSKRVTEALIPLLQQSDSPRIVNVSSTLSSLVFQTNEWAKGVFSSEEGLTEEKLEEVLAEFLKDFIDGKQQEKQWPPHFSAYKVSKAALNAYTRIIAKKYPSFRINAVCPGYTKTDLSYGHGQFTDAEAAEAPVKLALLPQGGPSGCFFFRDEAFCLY

SMILES | X-ray crystal structure (soaking) [1] | X-ray crystal structure ([2]; scavenged from expression host) | X-ray crystal structure ([2]; active site, non-substrate, with NADP+)
NC(=O)c1ccc[n+]([C@@H]2O[C@H](COP(=O)(O)OP(=O)(O)OC[C@H]3O[C@@H](n4cnc5c(N)ncnc54)[C@H](OP(=O)(O)O)[C@@H]3O)[C@@H](O)[C@H]2O)c1 [NADP^+] | A coenzyme‐bound MNMR structure was obtained by soaking crystals with NADP^+ | clear density in the F0−Fc map for NADP^+ | 
CC1=C(C=O)C(C)(C)CCC1 [β‐cyclocitral] |  |  | The IPR–β‐cyclocitral co‐crystal structure shows the ligand binds in a non‐active conformation
